Experimental data reported in patent publication US9637470B2, “Treatment for substance use disorders and stress disorders” (Baylor College of Medicine, priority 2013, dated 2017).

Assays:
CYP450 3A4 = CYP450 3A4 (Homo sapiens, UniProt P08684); test: CYP450 inhibition, 3A4; assay type: in vitro ADME
dopamine transporter = target: T1, dopamine transporter (Rattus norvegicus, UniProt P23977); test: Monoamine uptake into rat synaptosomes, dopamine; assay type: biochemical
T1 construct: from tissue; host or cells: rat synaptosomes
T1 sequence (P23977 whole entry): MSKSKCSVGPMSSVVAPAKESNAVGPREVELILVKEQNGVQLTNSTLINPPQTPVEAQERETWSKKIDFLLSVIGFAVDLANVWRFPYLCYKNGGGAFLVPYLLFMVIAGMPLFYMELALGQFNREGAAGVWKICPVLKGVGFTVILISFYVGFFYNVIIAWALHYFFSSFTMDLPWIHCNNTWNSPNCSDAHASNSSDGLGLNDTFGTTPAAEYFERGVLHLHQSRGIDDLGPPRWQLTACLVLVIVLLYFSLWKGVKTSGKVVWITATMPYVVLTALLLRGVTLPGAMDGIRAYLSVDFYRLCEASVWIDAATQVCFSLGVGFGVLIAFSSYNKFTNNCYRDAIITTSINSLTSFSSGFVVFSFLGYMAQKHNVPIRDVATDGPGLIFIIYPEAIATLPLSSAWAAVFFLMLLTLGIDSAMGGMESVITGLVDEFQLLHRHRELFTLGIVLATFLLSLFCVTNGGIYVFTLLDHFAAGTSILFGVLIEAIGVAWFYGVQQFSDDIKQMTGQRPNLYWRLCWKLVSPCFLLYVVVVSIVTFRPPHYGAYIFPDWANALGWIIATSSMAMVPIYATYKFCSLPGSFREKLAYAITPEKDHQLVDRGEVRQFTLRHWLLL

[1] = target: recombinant human dopamine transporter protein (DAT) (Homo sapiens, UniProt Q01959); test: IC50 binding profile, competitive inhibition assay, DAT
Sequence of recombinant human dopamine transporter protein (DAT) (Q01959 whole entry): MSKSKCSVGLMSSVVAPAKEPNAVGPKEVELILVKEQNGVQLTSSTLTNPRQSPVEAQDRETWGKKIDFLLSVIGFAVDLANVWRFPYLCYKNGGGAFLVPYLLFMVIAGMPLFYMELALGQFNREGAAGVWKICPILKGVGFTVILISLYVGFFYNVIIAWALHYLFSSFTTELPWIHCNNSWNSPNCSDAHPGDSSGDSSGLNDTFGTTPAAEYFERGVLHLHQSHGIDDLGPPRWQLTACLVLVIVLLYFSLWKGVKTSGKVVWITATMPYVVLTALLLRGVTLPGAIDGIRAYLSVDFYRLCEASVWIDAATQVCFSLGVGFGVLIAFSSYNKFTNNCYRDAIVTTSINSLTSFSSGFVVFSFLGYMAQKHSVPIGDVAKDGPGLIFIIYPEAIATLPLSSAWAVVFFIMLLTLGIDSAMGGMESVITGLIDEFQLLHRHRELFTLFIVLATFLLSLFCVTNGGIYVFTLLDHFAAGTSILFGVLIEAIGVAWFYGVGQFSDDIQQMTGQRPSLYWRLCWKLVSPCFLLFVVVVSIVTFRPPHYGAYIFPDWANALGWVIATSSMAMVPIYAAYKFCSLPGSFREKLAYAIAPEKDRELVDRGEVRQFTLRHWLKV
Protocol: Amitifadine and DOV 102,677 are enantiomers and differ only in the stereochemistry of the cyclopropyl pyrrolidine carbon to which the dichlorophenyl group is bonded. In addition to the structural differences, the compounds differ greatly in their IC50 binding profiles at the three corresponding monoamine transporter proteins. The IC50 binding profiles were measured for each of the compounds in Table 5 by competitive inhibition assays using recombinant human serotonin transporter protein, recombinant human norepinephrine transporter protein, and recombinant human dopamine transporter protein Compounds were screened at a range of concentrations and were fit to a curve to determine IC50 values, the concentration at which 50% inhibition occurs.

PK parameters in mouse = settings: in vivo
CYP450 2C8 = CYP450 2C8 (Homo sapiens, UniProt P10632); test: CYP450 inhibition, 2C8; assay type: in vitro ADME
Sequence of CYP450 2C8 (P10632 whole entry): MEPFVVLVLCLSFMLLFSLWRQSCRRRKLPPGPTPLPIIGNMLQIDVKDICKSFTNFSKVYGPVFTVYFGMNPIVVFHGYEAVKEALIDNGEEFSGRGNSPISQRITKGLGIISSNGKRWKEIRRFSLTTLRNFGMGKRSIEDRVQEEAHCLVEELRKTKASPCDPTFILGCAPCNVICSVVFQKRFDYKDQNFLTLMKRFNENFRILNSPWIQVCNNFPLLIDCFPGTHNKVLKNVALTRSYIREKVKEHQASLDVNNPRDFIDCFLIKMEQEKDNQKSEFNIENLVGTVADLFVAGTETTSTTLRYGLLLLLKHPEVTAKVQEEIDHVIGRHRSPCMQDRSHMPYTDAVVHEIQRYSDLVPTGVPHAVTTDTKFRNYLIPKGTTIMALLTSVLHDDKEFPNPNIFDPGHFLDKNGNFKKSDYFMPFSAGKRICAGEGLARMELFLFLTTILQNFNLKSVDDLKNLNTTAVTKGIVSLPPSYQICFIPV

AMES = test: Genotoxicity testing, AMES
serotonin transporter = target: T2, serotonin transporter (Rattus norvegicus, UniProt P31652); test: Monoamine uptake into rat synaptosomes, serotonin; assay type: biochemical
T2 construct: from tissue; host or cells: rat synaptosomes
T2 sequence (P31652 whole entry): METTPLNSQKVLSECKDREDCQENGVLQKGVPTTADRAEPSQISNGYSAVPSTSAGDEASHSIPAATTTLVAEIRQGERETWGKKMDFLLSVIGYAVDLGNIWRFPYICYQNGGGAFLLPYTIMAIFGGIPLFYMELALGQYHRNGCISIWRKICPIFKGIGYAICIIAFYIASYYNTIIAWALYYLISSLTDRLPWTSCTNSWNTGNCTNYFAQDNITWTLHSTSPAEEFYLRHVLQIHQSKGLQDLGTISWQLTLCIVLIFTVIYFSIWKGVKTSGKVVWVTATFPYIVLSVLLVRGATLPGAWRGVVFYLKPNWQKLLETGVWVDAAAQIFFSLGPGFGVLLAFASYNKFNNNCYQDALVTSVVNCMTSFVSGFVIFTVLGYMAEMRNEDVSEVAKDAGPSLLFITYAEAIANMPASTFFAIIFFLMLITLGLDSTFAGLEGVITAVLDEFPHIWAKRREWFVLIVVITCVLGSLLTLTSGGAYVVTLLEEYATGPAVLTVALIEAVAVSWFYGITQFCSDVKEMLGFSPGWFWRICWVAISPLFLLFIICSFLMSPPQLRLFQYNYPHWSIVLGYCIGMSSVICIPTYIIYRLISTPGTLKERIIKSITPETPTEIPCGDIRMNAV

CYP450 1A2 = CYP450 1A2 (Homo sapiens, UniProt P05177); test: CYP450 inhibition, 1A2; assay type: in vitro ADME
Sequence of CYP450 1A2 (P05177 whole entry): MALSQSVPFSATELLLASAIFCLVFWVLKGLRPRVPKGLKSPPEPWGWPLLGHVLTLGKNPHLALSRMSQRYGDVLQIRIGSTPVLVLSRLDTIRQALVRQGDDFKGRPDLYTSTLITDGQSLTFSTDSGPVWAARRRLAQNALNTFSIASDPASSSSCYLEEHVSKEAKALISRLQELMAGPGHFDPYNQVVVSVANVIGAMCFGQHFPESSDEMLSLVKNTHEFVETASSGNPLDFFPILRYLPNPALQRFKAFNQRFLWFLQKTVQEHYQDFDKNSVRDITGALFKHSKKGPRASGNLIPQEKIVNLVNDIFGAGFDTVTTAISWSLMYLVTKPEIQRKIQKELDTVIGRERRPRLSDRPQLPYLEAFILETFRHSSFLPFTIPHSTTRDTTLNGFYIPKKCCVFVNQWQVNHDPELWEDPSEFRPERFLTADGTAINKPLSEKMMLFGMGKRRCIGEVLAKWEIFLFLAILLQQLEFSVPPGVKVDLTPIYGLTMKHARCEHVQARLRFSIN

rats [2] = test: Irwin test for neurotoxicity in rats; assay type: in vivo, rat; settings: up to 90 mg/kg
mouse lymphoma = test: Genotoxicity testing, mouse lymphoma chromosome aberration
σ1 = σ1 (Homo sapiens, UniProt Q99720); test: Receptor binding studies, sigma σ1; settings: at 10 uM
Sequence of σ1 (Q99720 whole entry): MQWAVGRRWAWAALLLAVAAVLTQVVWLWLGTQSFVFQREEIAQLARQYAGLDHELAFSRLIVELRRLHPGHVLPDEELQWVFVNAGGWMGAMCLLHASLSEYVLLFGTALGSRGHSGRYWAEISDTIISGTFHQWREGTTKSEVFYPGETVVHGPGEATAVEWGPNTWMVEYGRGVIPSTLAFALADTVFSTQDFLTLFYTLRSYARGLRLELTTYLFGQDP
Excerpt: (§1) Binding at σ1 is not problematic, as SSRIs are known to have similar activities.

[3] = target: T3, norepinephrine transporter (Rattus norvegicus, UniProt Q63380); test: Monoamine uptake into rat synaptosomes, norepinephrine; assay type: biochemical
T3 construct: from tissue; host or cells: rat synaptosomes
T3 sequence (Q63380 1-617): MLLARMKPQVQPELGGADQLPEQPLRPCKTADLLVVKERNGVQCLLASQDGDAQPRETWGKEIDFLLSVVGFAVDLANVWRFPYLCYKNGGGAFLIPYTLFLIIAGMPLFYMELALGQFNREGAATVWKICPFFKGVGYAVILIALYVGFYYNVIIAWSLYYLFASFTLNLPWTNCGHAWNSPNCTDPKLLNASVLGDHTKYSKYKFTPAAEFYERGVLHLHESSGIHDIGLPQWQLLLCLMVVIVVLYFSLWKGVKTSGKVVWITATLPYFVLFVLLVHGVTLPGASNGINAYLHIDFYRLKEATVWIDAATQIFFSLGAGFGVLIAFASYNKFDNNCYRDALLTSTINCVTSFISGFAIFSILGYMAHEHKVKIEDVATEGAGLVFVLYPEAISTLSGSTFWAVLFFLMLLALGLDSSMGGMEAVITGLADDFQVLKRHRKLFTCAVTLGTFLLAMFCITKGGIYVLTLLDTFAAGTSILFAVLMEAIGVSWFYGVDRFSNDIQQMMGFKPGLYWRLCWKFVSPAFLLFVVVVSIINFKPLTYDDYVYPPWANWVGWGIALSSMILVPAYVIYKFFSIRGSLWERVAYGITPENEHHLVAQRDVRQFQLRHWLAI

CYP 1A2 = test: CYP induction, 1A2; assay type: in vitro ADME
5-HT2B = 5-HT2B (Homo sapiens, UniProt P41595); test: Functional activity at 5-HT2B receptor
Sequence of 5-HT2B (P41595 whole entry, species assumed): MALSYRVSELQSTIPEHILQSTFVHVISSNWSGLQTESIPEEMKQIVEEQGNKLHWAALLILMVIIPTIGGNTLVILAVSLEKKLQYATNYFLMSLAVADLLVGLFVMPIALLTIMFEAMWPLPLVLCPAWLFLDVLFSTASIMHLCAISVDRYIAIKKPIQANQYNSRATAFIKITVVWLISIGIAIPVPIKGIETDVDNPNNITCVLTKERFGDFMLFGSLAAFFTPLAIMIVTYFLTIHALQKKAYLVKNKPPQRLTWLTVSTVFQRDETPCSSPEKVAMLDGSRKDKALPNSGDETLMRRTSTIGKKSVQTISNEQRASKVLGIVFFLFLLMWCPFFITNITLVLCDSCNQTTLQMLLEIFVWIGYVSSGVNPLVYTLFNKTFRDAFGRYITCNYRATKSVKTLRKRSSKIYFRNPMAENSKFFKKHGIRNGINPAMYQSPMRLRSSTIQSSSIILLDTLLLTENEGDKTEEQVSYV
Excerpt: as §1

[4] = Metabolic stability in human liver microsomes; assay type: in vitro ADME
rats [5] = test: Self-administration in rats (abuse potential); settings: doses up to 10 mg/kg/infusion, cocaine positive control
micronucleus = test: Genotoxicity testing, micronucleus
[6] = tested on: synaptic levels of serotonin, norepinephrine, and dopamine in rat prefrontal cortex; test: Synaptic monoamine levels in rat prefrontal cortex after oral treatment; assay type: in vivo; settings: greater effects on serotonin and norepinephrine than dopamine
[7] = Chronic (13 week) toxicity testing in dogs; settings: dog, in vivo, read-out: no adverse effects level (NOAEL)
[8] = tested on: 56 receptors, channels, and transporters; test: Receptor binding studies, panel of 56 receptors, channels, and transporters; settings: 10 μM; all sites except σ1 and 5-HT2B
Excerpt: as §1

[9] = Human pharmacokinetic studies; settings: in vivo, read-out: elimination half-life (converted)
Protocol: These studies will use double-blind, placebo-controlled experimental designs. Human pharmacokinetic studies indicate that EC2 has an elimination half-life of approximately 7 hours, allowing twice daily dosing.

Sprague-Dawley rats = test: Methamphetamine-induced locomotor activation in rats; assay type: in vivo, rat; settings: for locomotor activity, EC2 alone versus saline: 30.0 mg/kg IP; for METH-induced locomotor activation: EC2 30.0 mg/kg IP + METH 1 mg/kg
Excerpt: Adult male Sprague-Dawley rats (n=5-6/group, Harlan Sprague-Dawley Inc., Indianapolis, Ind., USA) were used in this study. Rats were housed three per cage in polypropylene cages in a temperature- and humidity-controlled room maintained on a 12:12 light/dark cycle (lights on at 7:00). Food and water were available ad libitum. Protocols were approved by the Baylor College of Medicine Institutional Animal Care and Use Committee and followed the “Principles of Laboratory Animal Care” (NIH publication No. 85-23, revised 1996). Facilities were accredited by the American Association of Laboratory Animal Care.
The TruScan photobeam activity system (Coulbourn Instruments, Allentown, Pa., USA) was used to measure horizontal and vertical distance traveled in centimeters (cm). This system includes a clear arena (16″L×16″W×15.5″D) that had two sets of infrared sensors with one located at floor level and the other 2.5″ above floor level. Data from beam breaks were tabulated and analyzed by a PC computer and using a Coulbourn Instruments software system (TruScan 2.03).
Drug solutions were prepared fresh daily. To test the effects of EC2 on METH locomotor activation, groups of rats were administered vehicle (saline), METH (1 mg/kg), EC2 (30.0 mg/kg) and EC2+METH. Pretreatment time was 30 min for EC2.
Testing began on the next day (day 1) and continued for the next five days. Rats were administered drugs according to group and immediately placed in the activity chambers for 60 min.
Data were first assessed with normality (Shapiro-Wilk) and equal variance tests. Distance traveled (cm), which reflects ambulatory activity, and vertical distance (cm) were the primary dependent variables analyzed. Habituation locomotor activity (baseline habituation, HAB) was assessed using a One-Way ANOVA with treatment as the main factor, and Student-Newman-Keuls Method was used for post-hoc comparisons. […] Dunn's method was used for post-hoc multiple comparisons between groups. Data are presented as mean±SEM and significant p values set at <0.05.
The preceding example was continued for 5 days. Data from day 5 passed normality and equal variance tests and were analyzed with One-Way ANOVA with treatment as the main factor. Post-hoc pairwise multiple comparison procedures were performed using Student-Newman Keuls Method was used to determine group differences. Data are presented as mean±SEM and significant p values set at <0.05.

healthy volunteers = test: Single ascending dose study in healthy volunteers; assay type: in vivo, human
Protocol: A single ascending dose, double-blind, placebo controlled study enrolled 50 participants divided into 10 per dosing group. In each group of 10 volunteers, 7 received active medication and 3 received placebo. The doses tested were 10, 25, 75, 150, and 300 mg. […] Across most doses, the elimination half-life was […].

Sequence of CYP450 3A4 (P08684 whole entry): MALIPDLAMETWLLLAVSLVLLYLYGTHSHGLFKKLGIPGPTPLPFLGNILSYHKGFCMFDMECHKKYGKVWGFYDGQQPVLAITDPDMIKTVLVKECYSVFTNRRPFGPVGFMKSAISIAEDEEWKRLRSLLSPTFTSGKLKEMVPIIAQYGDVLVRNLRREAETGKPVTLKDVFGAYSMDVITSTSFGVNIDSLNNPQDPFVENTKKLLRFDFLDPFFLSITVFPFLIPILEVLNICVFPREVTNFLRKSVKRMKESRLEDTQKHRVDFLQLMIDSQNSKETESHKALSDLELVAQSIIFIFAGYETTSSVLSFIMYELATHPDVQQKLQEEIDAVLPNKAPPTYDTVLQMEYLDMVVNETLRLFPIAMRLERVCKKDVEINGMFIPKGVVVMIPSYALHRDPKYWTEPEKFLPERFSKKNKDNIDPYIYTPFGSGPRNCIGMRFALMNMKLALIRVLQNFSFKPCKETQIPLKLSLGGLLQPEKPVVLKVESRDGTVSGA

c1ccc2cc([C@H]([C@H]3CCCNC3)n3ncnn3)ccc2c1 [Example Compound 2, (3S)-3-[(S)-naphthalen-2-yl(2H-tetrazol-2-yl)methyl]piperidine]
inhibition of CYP450 3A4 (CYP450 3A4): does not inhibit
IC50 (dopamine transporter): 74 nM
IC50 [1]: 11 nM
half-life (PK parameters in mouse): 1.9 h
inhibition of CYP450 2C8 (CYP450 2C8): does not inhibit
genotoxicity, AMES (AMES): negative
IC50 (serotonin transporter): 37 nM
inhibition of CYP450 1A2 (CYP450 1A2): does not inhibit
Irwin test for neurotoxicity (rats [2]): negative
genotoxicity, mouse lymphoma chromosome aberration (mouse lymphoma): negative
inhibition of binding at σ1 (σ1): 74 % inhibition
IC50 [3]: 65 nM
induction of CYP 1A2 (CYP 1A2): does not induce
activity at 5-HT2B receptor (5-HT2B): antagonist activity
metabolic stability [4]: high
self-administration (rats [5]): not self-administered
genotoxicity, micronucleus (micronucleus): negative
effect on synaptic levels of serotonin, norepinephrine, and dopamine [6]: clear effects on all three monoamines
NOAEL at 13 week [7]: 6 mg/kg
binding at the other sites of the panel [8]: no significant binding
half-life [9]: ~7 h
locomotor activity, EC2 alone versus saline (Sprague-Dawley rats; day 5, both activity measures): did not differ from saline
locomotor activity, EC2 alone versus saline (Sprague-Dawley rats; over 5 days, both activity measures): did not differ from saline
METH-induced locomotor activation (Sprague-Dawley rats; day 5, more apparent on vertical distance): significantly attenuated
METH-induced locomotor activation (Sprague-Dawley rats; over 5 days, more apparent on vertical distance): significantly attenuated
plasma concentration versus dose (healthy volunteers; single dose 10, 25, 75, 150, and 300 mg): proportional to dose
primary adverse effects (healthy volunteers; single dose, increasing in prevalence at 75 mg and higher): nausea, dizziness, and headache
safety (healthy volunteers; single doses up to 300 mg): safe
